Source: patent US8680159B2, “Bradykinin 1 receptor modulating compounds” (Gruenenthal GmbH, priority 2010, dated 2014)

What follows are compounds tested against T1, human B1R receptor (CHO K1 cells stably transfected with the human B1R gene) (Homo sapiens, UniProt P46663) (assay: Functional study on the bradykinin receptor 1 (B1R), Ca2+ fluorescence (Fluo-4) FLIPR/Novostar assay, hB1R cells). Conditions: CHO-K1, read-out: % Inhibition (h-B1R) at 10 μM.
T1 construct: expressed in transfected cells; host or cells: CHO K1 cells (Chinese hamster ovary), stably transfected
T1 sequence (P46663 1-353): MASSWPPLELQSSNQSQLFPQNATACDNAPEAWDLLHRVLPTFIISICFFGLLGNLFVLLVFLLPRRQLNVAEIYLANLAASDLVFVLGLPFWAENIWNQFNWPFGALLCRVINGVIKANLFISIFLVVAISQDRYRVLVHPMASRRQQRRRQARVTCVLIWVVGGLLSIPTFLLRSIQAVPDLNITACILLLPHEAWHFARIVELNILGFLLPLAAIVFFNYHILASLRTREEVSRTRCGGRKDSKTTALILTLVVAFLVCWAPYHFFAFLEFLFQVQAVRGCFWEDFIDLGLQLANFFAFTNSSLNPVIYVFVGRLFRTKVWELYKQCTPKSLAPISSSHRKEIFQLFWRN
Assay type: cell-based
Method: The agonistic or antagonistic action of substances can be quantified on the bradykinin receptor 1 (B1R) of the species human and rat using ectopically expressing cell lines (CHO K1 cells) and with the aid of a Ca^2+-sensitive dye (Fluo-4) using a fluorescent imaging plate reader (FLIPR). The indication in % activation is based on the Ca^2+ signal after addition of Lys-Des-Arg^9-bradykinin (0.5 nM) or Des-Arg^9-bradykinin (100 nM). Antagonists lead to suppression of the Ca^2+ influx after the addition of the agonist. % Inhibition compared with the maximum achievable inhibition is indicated.
The agonistic or antagonistic action of substances can be determined on the bradykinin receptor 1 (B1R) of the species human and rat using the following assay. According to this assay, the increase in intracellular Ca^2+ following administration of a B1R agonist is quantified with the aid of a Ca^2+-sensitive dye (Fluo-4 type, Molecular Probes Europe BV, Leiden, Netherlands) using a Fluorescent Imaging Plate Reader (FLIPR, Molecular Devices, Sunnyvale, USA) and/or using a Novostar (BMG Labtech GmbH, Offenburg, Germany).
Chinese hamster ovary cells (CHO K1 cells) which have been stably transfected with the human B1R gene (hB1R cells) or with the B1R gene of the rat (rB1R cells) are used. For functional studies, the cells are plated out on black 96-well plates having a clear base (BD Biosciences, Heidelberg, Germany or Greiner, Frickenhausen, Germany) in a density of 20,000-35,000 cells/well. The cells are left overnight at 37° C. and with 5% CO2 in culture medium (hB1R cells: Nutrient Mixture Ham's F12, Gibco Invitrogen GmbH, Karlsruhe, Germany or DMEM, Sigma-Aldrich, Taufkirchen, Germany; rB1R cells: D-MEM/F12, Gibco Invitrogen GmbH, Karlsruhe, Germany), with 10 vol. % FBS (fetal bovine serum, Gibco Invitrogen GmbH, Karlsruhe, Germany or PAN Biotech GmbH, Aidenbach, Germany). On the following day, the cells are loaded for 60 minutes at 37° C. with 2.13 μM Fluo-4 (Molecular Probes Europe BV, Leiden, Netherlands) in HBSS buffer (Hank's buffered saline solution, Gibco Invitrogen GmbH, Karlsruhe, Germany) […] (Sigma-Aldrich, Taufkirchen, Germany) and 10 mM HEPES (Sigma-Aldrich, Taufkirchen, Germany). The plates are then washed twice with HBSS buffer, and HBSS buffer additionally containing 0.1% BSA (bovine serum albumin; Sigma-Aldrich, Taufkirchen, Germany), 5.6 mM glucose and 0.05% gelatin (Merck KGaA, Darmstadt, Germany) is added to the plates. After incubation for a further 20 minutes at room temperature, the plates are inserted into the FLIPR or Novostar for Ca^2+ measurement. Alternatively, washing is carried out with buffer A (15 mM HEPES, 80 mM NaCl, 5 mM KCl, 1.2 mM CaCl2, 0.7 mM MgSO4, 2 g/l glucose, 2.5 mM probenecid) followed by loading with buffer A with added 2.5 μM Fluo-4 and 0.025% Pluronic F127 (Sigma-Aldrich, Taufkirchen, Germany). The cells are then washed twice with buffer A and incubated for 30 minutes at room temperature with buffer A additionally containing 0.05% BSA and 0.05% gelatin and are then inserted into the FLIPR or Novostar for Ca^2+ measurement. The Ca^2+-dependent fluorescence is measured before and after the addition of substances (λex=488 nm, λem=540 nm). Quantification is carried out by measuring the highest fluorescence intensity (FC, fluorescence counts) over time.
The FLIPR protocol consists of 2 substance additions, which are pipetted in the FLIPR. In the case of measurements using the Novostar, only the second substance addition is pipetted in the device. Both devices measure the fluorescence intensity over time. Test substances (10 μM) are first pipetted onto the cells and the intracellular Ca^2+ increase is compared with the control (hB1R: Lys-Des-Arg^9-bradykinin>=50 nM; rB1R: Des-Arg^9-bradykinin>=1 μM). This gives the % activation, based on the Ca^2+ signal after addition of Lys-Des-Arg^9-bradykinin (>=50 nM) or Des-Arg^9-bradykinin (>=1 μM). […]

inhibition at 10 µM [%]	SMILES
84	Cc1cccc(C)c1C(=O)NC1CCOc2ccc(C(=O)N(C)C3CCN(c4ccncc4)CC3)cc21 (centres unmarked) [CC_H-71, 4-[(2,6-Dimethyl-benzoyl)amino]-N-methyl-N-(1-pyridin-4-yl-piperidin-4-yl)-3,4-dihydro-2H-chromene-6-carboxylic acid amide]
93	CN(C(=O)c1ccc2c(c1)C(NC(=O)c1c(Cl)cccc1C(F)(F)F)CCO2)C1CCN(c2ccncc2)CC1 (centres unmarked) [CC_H-72, 4-[[2-Chloro-6-(trifluoromethyl)-benzoyl]amino]-N-methyl-N-(1-pyridin-4-yl-piperidin-4-yl)-3,4-dihydro-2H-chromene-6-carboxylic acid amide]
100	CN(C(=O)c1ccc2c(c1)C(NC(=O)c1ccccc1Cl)CCC2)C1CCN(c2ccncc2)CC1 (centres unmarked) [CC_H-73, 8-[(2-Chloro-benzoyl)amino]-N-methyl-N-(1-pyridin-4-yl-piperidin-4-yl)-5,6,7,8-tetrahydro-naphthalene-2-carboxylic acid amide]
96	O=C(NCCC1CCN(c2ccncc2)CC1)c1ccc2c(c1)C(NC(=O)c1cccc(Cl)c1Cl)CC2 (centres unmarked) [CC_H-74, 3-[(2,3-Dichloro-benzoyl)amino]-N-[2-(1-pyridin-4-yl-piperidin-4-yl)-ethyl]-2,3-dihydro-1H-indene-5-carboxylic acid amide]
99	CN(C(=O)c1ccc2c(c1)C(NC(=O)c1ccccc1Cl)CC2)C1CCN(c2ccc3cnccc3c2)CC1 (centres unmarked) [CC_H-75, 3-[(2-Chloro-benzoyl)amino]-N-(1-isoquinolin-6-yl-piperidin-4-yl)-N-methyl-2,3-dihydro-1H-indene-5-carboxylic acid amide]
100	CN(C(=O)c1ccc2c(c1)C(NC(=O)c1cc(F)ccc1Cl)CC2)C1CCN(c2ccc3cnccc3c2)CC1 (centres unmarked) [CC_H-76, 3-[(2-Chloro-5-fluoro-benzoyl)amino]-N-(1-isoquinolin-6-yl-piperidin-4-yl)-N-methyl-2,3-dihydro-1H-indene-5-carboxylic acid amide]
99	CN(C(=O)c1ccc2c(c1)C(NC(=O)C1CCCCC1)CC2)C1CCN(c2ccc3cnccc3c2)CC1 (centres unmarked) [CC_H-77, 3-(Cyclohexanecarbonylamino)-N-(1-isoquinolin-6-yl-piperidin-4-yl)-N-methyl-2,3-dihydro-1H-indene-5-carboxylic acid amide]
100	CN(C(=O)c1ccc2c(c1)C(NC(=O)CCC1CCCC1)CC2)C1CCN(c2ccc3cnccc3c2)CC1 (centres unmarked) [CC_H-78, 3-(3-Cyclopentyl-propanoylamino)-N-(1-isoquinolin-6-yl-piperidin-4-yl)-N-methyl-2,3-dihydro-1H-indene-5-carboxylic acid amide]

The compounds below were run against T2, B1R receptor of the rat (CHO K1 cells stably transfected with the B1R gene of the rat) (Rattus norvegicus, UniProt P97583) (assay: Functional study on the bradykinin receptor 1 (B1R), Ca2+ fluorescence (Fluo-4) FLIPR/Novostar assay, rB1R cells). Conditions: CHO-K1, 10 μM, library compounds CC_H, read-out: % Inhibition (r-B1R) at 10 μM.
T2 construct: expressed in transfected cells; host or cells: CHO K1 cells (Chinese hamster ovary), stably transfected
T2 sequence (P97583 1-337): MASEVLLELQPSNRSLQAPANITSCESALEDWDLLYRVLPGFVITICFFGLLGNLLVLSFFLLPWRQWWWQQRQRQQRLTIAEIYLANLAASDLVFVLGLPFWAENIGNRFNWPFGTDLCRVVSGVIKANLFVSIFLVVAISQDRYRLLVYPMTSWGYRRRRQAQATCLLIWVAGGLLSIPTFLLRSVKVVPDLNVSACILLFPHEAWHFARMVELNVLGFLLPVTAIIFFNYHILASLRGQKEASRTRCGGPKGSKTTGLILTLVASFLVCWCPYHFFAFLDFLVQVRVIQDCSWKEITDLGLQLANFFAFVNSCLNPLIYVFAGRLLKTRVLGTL
Assay type: cell-based
How it was run: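 Stably transfected CHO K1 cells carrying human or rat B1R were Fluo-4 loaded and Ca2+ fluorescence read by FLIPR or Novostar. Compounds were added first at 10 μM for % activation, then the EC80 agonist was applied after 6-20 min (human: Lys-Des-Arg9-bradykinin; rat: Des-Arg9-bradykinin). % inhibition is relative to maximum achievable inhibition, and IC50 comes from concentration series.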

inhibition at 10 µM [%]	SMILES
96	CN(C(=O)c1ccc2c(c1)C(NC(=O)CCC1CCCC1)CC2)C1CCN(c2ccnc(C(C)(C)C)n2)CC1 (centres unmarked) [CC_H-624, N-[1-(2-tert-Butyl-pyrimidin-4-yl)-piperidin-4-yl]-3-(3-cyclopentyl-propanoylamino)-N-methyl-2,3-dihydro-1H-indene-5-carboxylic acid amide]
100	CN(C(=O)c1ccc2c(c1)C(NC(=O)c1ccccc1Cl)CC2)C1CCN(c2ccnc(C3CC3)n2)CC1 (centres unmarked) [CC_H-627, 3-[(2-Chloro-benzoyl)amino]-N-[1-(2-cyclopropyl-pyrimidin-4-yl)-piperidin-4-yl]-N-methyl-2,3-dihydro-1H-indene-5-carboxylic acid amide]
99	CN(C(=O)c1ccc2c(c1)C(NC(=O)c1cccnc1C(F)(F)F)CC2)C1CCN(c2ccnnc2)CC1 (centres unmarked) [CC_H-628, N-[6-[Methyl-(1-pyridazin-4-yl-piperidin-4-yl)-carbamoyl]-2,3-dihydro-1H-inden-1-yl]-2-(trifluoromethyl)-pyridine-3-carboxylic acid amide]
101	CN(C)c1nccc(N2CCC(N(C)C(=O)c3ccc4c(c3)C(NC(=O)CCC3CCCC3)CC4)CC2)n1 (centres unmarked) [CC_H-629, 3-(3-Cyclopentyl-propanoylamino)-N-[1-(2-dimethylamino-pyrimidin-4-yl)-piperidin-4-yl]-N-methyl-2,3-dihydro-1H-indene-5-carboxylic acid amide]
95	CN(C(=O)c1ccc2c(c1)C(NC(=O)CCC1CCCC1)CC2)C1CCN(c2ccnc(C3CC3)n2)CC1 (centres unmarked) [CC_H-630, 3-(3-Cyclopentyl-propanoylamino)-N-[1-(2-cyclopropyl-pyrimidin-4-yl)-piperidin-4-yl]-N-methyl-2,3-dihydro-1H-indene-5-carboxylic acid amide]
94	CN(C(=O)c1ccc2c(c1)C(NC(=O)c1ccccc1Cl)CC2)C1CCN(c2ncncc2F)CC1 (centres unmarked) [CC_H-631, 3-[(2-Chloro-benzoyl)amino]-N-[1-(5-fluoro-pyrimidin-4-yl)-piperidin-4-yl]-N-methyl-2,3-dihydro-1H-indene-5-carboxylic acid amide]
95	CN(C(=O)c1ccc2c(c1)C(NC(=O)CCC1CCCC1)CC2)C1CCN(c2ncncc2F)CC1 (centres unmarked) [CC_H-632, 3-(3-Cyclopentyl-propanoylamino)-N-[1-(5-fluoro-pyrimidin-4-yl)-piperidin-4-yl]-N-methyl-2,3-dihydro-1H-indene-5-carboxylic acid amide]
103	CN(C(=O)c1ccc2c(c1)C(NC(=O)c1ccccc1Cl)CC2)C1CCN(c2ccnnc2)CC1 (centres unmarked) [CC_H-633, 3-[(2-Chloro-benzoyl)amino]-N-methyl-N-(1-pyridazin-4-yl-piperidin-4-yl)-2,3-dihydro-1H-indene-5-carboxylic acid amide]
93	CN(C(=O)c1ccc2c(c1)C(NC(=O)CCC1CCCC1)CC2)C1CCN(c2ccnnc2)CC1 (centres unmarked) [CC_H-634, 3-(3-Cyclopentyl-propanoylamino)-N-methyl-N-(1-pyridazin-4-yl-piperidin-4-yl)-2,3-dihydro-1H-indene-5-carboxylic acid amide]
